PubChem BioAssay AID1963827 (Molecular Pharmacology Branch, DTP, NCI, 2024)

Tested on: 994946-033-R-J1-PDC complex spheroid viability
Assay: Anticancer human tumor 994946-033-R-J1-PDC patient-derived melanoma cell line growth inhibition [POLQ]
Settings: for IC50: curve of first compound; for viability, T/C: stronger effect = lower value
In short: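 Patient-derived tumour cells were co-cultured with HUVEC and mesenchymal stem cells as multicellular spheroids at 37 °C. They were treated with POLQ inhibitors (novobiocin, ART-558, RP6685) alone or combined with other agents. Top concentrations were at or near clinical Cmax (otherwise 10 microM; SN-38 at 1 microM), decreasing in half-log steps.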

[1] = second compound 0.0316 µM, first compound 0.0316 µM
[2] = second compound 0.0316 µM, first compound 0.1 µM
[3] = second compound 0.0316 µM, first compound 0.316 µM
[4] = second compound 0.0316 µM, first compound 1 µM
[5] = second compound 0.0316 µM, first compound 3.16 µM
[6] = second compound 0.0316 µM, first compound 10 µM
[7] = second compound 0.1 µM, first compound 0.0316 µM
[8] = second compound 0.1 µM, first compound 0.1 µM
[9] = second compound 0.1 µM, first compound 0.316 µM
[10] = second compound 0.1 µM, first compound 1 µM
[11] = second compound 0.1 µM, first compound 3.16 µM
[12] = second compound 0.1 µM, first compound 10 µM
[13] = second compound 0.316 µM, first compound 0.0316 µM
[14] = second compound 0.316 µM, first compound 0.1 µM
[15] = second compound 0.316 µM, first compound 0.316 µM
[16] = second compound 0.316 µM, first compound 1 µM
[17] = second compound 0.316 µM, first compound 3.16 µM
[18] = second compound 0.316 µM, first compound 10 µM
[19] = second compound 1 µM, first compound 0.0316 µM
[20] = second compound 1 µM, first compound 0.1 µM
[21] = second compound 1 µM, first compound 0.316 µM
[22] = second compound 1 µM, first compound 1 µM
[23] = second compound 1 µM, first compound 3.16 µM
[24] = second compound 1 µM, first compound 10 µM
[25] = second compound 3.16 µM, first compound 0.0316 µM
[26] = second compound 3.16 µM, first compound 0.1 µM
[27] = second compound 3.16 µM, first compound 0.316 µM
[28] = second compound 3.16 µM, first compound 1 µM
[29] = second compound 3.16 µM, first compound 3.16 µM
[30] = second compound 3.16 µM, first compound 10 µM
[31] = second compound 10 µM, first compound 0.0316 µM
[32] = second compound 10 µM, first compound 0.1 µM
[33] = second compound 10 µM, first compound 0.316 µM
[34] = second compound 10 µM, first compound 1 µM
[35] = second compound 10 µM, first compound 3.16 µM
[36] = second compound 10 µM, first compound 10 µM
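Further: spheroids exposed to drugs for 7 days.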
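Wherever viability, T/C is given: 100% = DMSO vehicle treated spheroids.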

CCc1cc2c(N3CCc4c(cc(Cn5ccnc5)cc4-c4cn(C)nc4C(F)(F)F)C3=O)cc(C)nc2c(OC)n1 + COC1C(OC(N)=O)C(O)C(Oc2ccc3c(O)c(NC(=O)c4ccc(O)c(CC=C(C)C)c4)c(=O)oc3c2C)OC1(C)C
IC50 (second compound 0.0316 µM): > 10 µM | IC50 (second compound 0.1 µM): > 10 µM | IC50 (second compound 0.316 µM): > 10 µM | IC50 (second compound 1 µM): > 10 µM | IC50 (second compound 3.16 µM): > 10 µM | IC50 (second compound 10 µM): > 10 µM | viability, T/C [1]: 105% | viability, T/C [2]: 86.1% | viability, T/C [3]: 89.6% | viability, T/C [4]: 83% | viability, T/C [5]: 73.4% | viability, T/C [6]: 64% | viability, T/C [7]: 83.5% | viability, T/C [8]: 71.5% | viability, T/C [9]: 75.1% | viability, T/C [10]: 86.9% | viability, T/C [11]: 83.2% | viability, T/C [12]: 75.1% | viability, T/C [13]: 111% | viability, T/C [14]: 90.2% | viability, T/C [15]: 86.1% | viability, T/C [16]: 51.9% | viability, T/C [17]: 54% | viability, T/C [18]: 70.5% | viability, T/C [19]: 100% | viability, T/C [20]: 71.3% | viability, T/C [21]: 86.9% | viability, T/C [22]: 82.2% | viability, T/C [23]: 88.9% | viability, T/C [24]: 91% | viability, T/C [25]: 66% | viability, T/C [26]: 100% | viability, T/C [27]: 80.8% | viability, T/C [28]: 78.2% | viability, T/C [29]: 73.1% | viability, T/C [30]: 63.8% | viability, T/C [31]: 68.1% | viability, T/C [32]: 93.4% | viability, T/C [33]: 64.6% | viability, T/C [34]: 82.2% | viability, T/C [35]: 51.1% | viability, T/C [36]: 69.9%

CC1COCCN1c1cc(C2(S(C)(=N)=O)CC2)nc(-c2ccnc3[nH]ccc23)n1 (centres undefined) + COC1C(OC(N)=O)C(O)C(Oc2ccc3c(O)c(NC(=O)c4ccc(O)c(CC=C(C)C)c4)c(=O)oc3c2C)OC1(C)C
IC50 (second compound 0.0316 µM): 4.13 µM | IC50 (second compound 0.1 µM): 1.39 µM | IC50 (second compound 0.316 µM): 4.03 µM | IC50 (second compound 1 µM): 8.12 µM | IC50 (second compound 3.16 µM): > 10 µM | IC50 (second compound 10 µM): 3.19 µM | viability, T/C [1]: 134% | viability, T/C [2]: 95.5% | viability, T/C [3]: 99.4% | viability, T/C [4]: 45.6% | viability, T/C [5]: 61.9% | viability, T/C [6]: 41.1% | viability, T/C [7]: 113% | viability, T/C [8]: 101% | viability, T/C [9]: 68.2% | viability, T/C [10]: 65.3% | viability, T/C [11]: 29.2% | viability, T/C [12]: 36.1% | viability, T/C [13]: 78.1% | viability, T/C [14]: 116% | viability, T/C [15]: 92.4% | viability, T/C [16]: 63.9% | viability, T/C [17]: 61.5% | viability, T/C [18]: 34.1% | viability, T/C [19]: 138% | viability, T/C [20]: 105% | viability, T/C [21]: 80.8% | viability, T/C [22]: 68.9% | viability, T/C [23]: 52.9% | viability, T/C [24]: 49.6% | viability, T/C [25]: 101% | viability, T/C [26]: 90.5% | viability, T/C [27]: 80.5% | viability, T/C [28]: 75% | viability, T/C [29]: 54.6% | viability, T/C [30]: 57.9% | viability, T/C [31]: 103% | viability, T/C [32]: 85.4% | viability, T/C [33]: 99% | viability, T/C [34]: 102% | viability, T/C [35]: 50% | viability, T/C [36]: 37%
